Measured values taken from ChEMBL document CHEMBL1201862, “PubChem BioAssay data set” (2004).
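How tested: cells in 96-well plates exposed to compound for 48 hours at five concentrations. Abbreviation: GI50, concentration required for 50% inhibition of growth.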 Activity calls are given as the source filed them. Cut-off read from the data, not from the text of the source: active = GI50 up to about 1.1 µM and inactive = higher.

Experiments:
Assay in all cases: NCI anticancer screen, dose series, 48 h
[1] = tested on: K562
[2] = tested on: UO-31
[3] = tested on: BT-549
[4] = tested on: PC-3
[5] = tested on: SF-539
[6] = tested on: EKVX
[7] = tested on: MDA-N
[8] = tested on: DU-145
[9] = tested on: SK-OV-3
[10] = tested on: CAKI-1
[11] = tested on: NCI-H23
[12] = tested on: NCI/ADR-RES
[13] = tested on: SK-MEL-2
[14] = tested on: IGROV-1
[15] = tested on: SF-268
[16] = tested on: HCC 2998
[17] = tested on: HL-60
[18] = tested on: CCRF-CEM
[19] = tested on: M14

Compound: COC12OC3CC4(C)C(=CC3OC(OC(C)C1O)C2O)CCC1C4CCC2(C)C(c3ccc(=O)oc3)CCC12O (configuration not stated)
- GI50 [1]: 0.00237 µM (active)
- GI50 [2]: 0.0017 µM (active)
- GI50 [3]: 0.00143 µM (active)
- GI50 [4]: 0.00142 µM (active)
- GI50 [5]: 0.00126 µM (active)
- GI50 [6]: < 0.001 µM (active)
- GI50 [7]: 0.00215 µM (active)
- GI50 [8]: 0.00129 µM (active)
- GI50 [9]: 0.00289 µM (active)
- GI50 [10]: 0.00147 µM (active)
- GI50 [11]: 0.00125 µM (active)
- GI50 [12]: 0.00151 µM (active)
- GI50 [13]: 0.00205 µM (active)
- GI50 [14]: 0.00171 µM (active)
- GI50 [15]: 0.00105 µM (active)
- GI50 [16]: 0.00338 µM (active)
- GI50 [17]: 0.00139 µM (active)
- GI50 [18]: 0.00125 µM (active)
- GI50 [19]: 0.0023 µM (active)

Compound: O=C(/C=C/c1ccco1)c1cccc(C(=O)/C=C/c2ccco2)n1
- GI50 [1]: 2.91 µM (inactive)
- GI50 [2]: 6.43 µM (inactive)
- GI50 [3]: 13 µM (inactive)
- GI50 [4]: 13.2 µM (inactive)
- GI50 [5]: 5.01 µM (inactive)
- GI50 [6]: 57.3 µM (inactive)
- GI50 [7]: 10.7 µM (inactive)
- GI50 [8]: 24.9 µM (inactive)
- GI50 [9]: 47.8 µM (inactive)
- GI50 [10]: 25 µM (inactive)
- GI50 [11]: 11.7 µM (inactive)
- GI50 [12]: 24.2 µM (inactive)
- GI50 [13]: 25.5 µM (inactive)
- GI50 [14]: 6.82 µM (inactive)
- GI50 [15]: 5.24 µM (inactive)
- GI50 [16]: > 75.9 µM (inactive)
- GI50 [17]: 0.0409 µM (active)
- GI50 [18]: 0.71 µM (active)
- GI50 [19]: 27.2 µM (inactive)

Compound: O=C1Nc2ccccc2/C1=C/c1ccccc1
- GI50 [1]: 27.7 µM (inactive)
- GI50 [2]: 12.6 µM (inactive)
- GI50 [3]: 16.4 µM (inactive)
- GI50 [4]: 14.6 µM (inactive)
- GI50 [5]: 15.4 µM (inactive)
- GI50 [6]: 13.8 µM (inactive)
- GI50 [7]: 17.7 µM (inactive)
- GI50 [8]: 13.8 µM (inactive)
- GI50 [9]: 28.8 µM (inactive)
- GI50 [10]: 29.2 µM (inactive)
- GI50 [11]: 18.1 µM (inactive)
- GI50 [12]: 22.8 µM (inactive)
- GI50 [13]: 14.3 µM (inactive)
- GI50 [14]: 11.7 µM (inactive)
- GI50 [15]: 15.6 µM (inactive)
- GI50 [16]: 15.8 µM (inactive)
- GI50 [17]: 14.6 µM (inactive)
- GI50 [18]: 17.8 µM (inactive)
- GI50 [19]: 16.7 µM (inactive)
